The test system of one experiment is KYSE-150 cell line. Nature of the experiment: Antiproliferative activity against human KYSE-150 cells assessed as cell growth inhibition measured after 48 hrs by MTT assay. To be noted: KYSE-150, 48 h. It counts as functional, cell-based.
A further experiment deals with MCF7. Nature of the experiment: Antiproliferative activity against human MCF7 cells assessed as cell growth inhibition measured after 48 hrs by MTT assay. It counts as functional, cell-based. Conditions: MCF7, 48 h.
For experiment [1], the system named is HeLa. In words: Antiproliferative activity against human HeLa cells assessed as cell growth inhibition measured after 48 hrs by MTT assay. It counts as functional, cell-based.
In another experiment the test system is MDA-MB-231. In words: Antiproliferative activity against human MDA-MB-231 cells assessed as cell growth inhibition measured after 48 hrs by MTT assay. Conditions: MDA-MB-231, 48 h. It counts as functional, cell-based.
In a further experiment the target is Tubulin (Homo sapiens) (UniProt P68371+Q9H4B7+P0DPH7+P68366+Q13509+Q71U36+P04350+Q3ZCM7+P07437+P68363+Q9BQE3+Q6PEY2+Q13885+Q9BVA1+Q9BUF5). Nature of the experiment: Inhibition of tubulin polymerization (unknown origin) at 10 uM relative to control. The format is protein-complex assay.
Experiment [2] relates to HeLa. Nature of the experiment: Cell cycle arrest in human HeLa cells assessed as accumulation at G2/M phase at 9 uM measured after 24 hrs by propidium iodide staining based flow cytometry analysis (reference value: 13.92 %). The format is functional.
Experiment [3] relates to HeLa. Nature of the experiment: Cell cycle arrest in human HeLa cells assessed as accumulation at G2/M phase at 18 uM measured after 24 hrs by propidium iodide staining based flow cytometry analysis (reference value: 13.92 %). It counts as functional.
Experiment [4] deals with HeLa. Nature of the experiment: Cell cycle arrest in human HeLa cells assessed as accumulation at G2/M phase at 36 uM measured after 24 hrs by propidium iodide staining based flow cytometry analysis (reference value: 13.92 %). The format is functional.
Experiment [5] has as its system HeLa. Nature of the experiment: Cell cycle arrest in human HeLa cells assessed as accumulation at G2/M phase measured after 24 hrs by propidium iodide staining based flow cytometry analysis. It counts as functional.
The test system of experiment [6] is HeLa. Nature of the experiment: Cell cycle arrest in human HeLa cells assessed as accumulation at S phase at 36 uM measured after 24 hrs by propidium iodide staining based flow cytometry analysis (reference value: 18.92 %). The format is functional.
In experiment [7] the test system is HeLa. In words: Cell cycle arrest in human HeLa cells assessed as accumulation at S phase at 9 uM measured after 24 hrs by propidium iodide staining based flow cytometry analysis (reference value: 18.92 %). The format is functional.
The test system of experiment [8] is HeLa. Nature of the experiment: Cell cycle arrest in human HeLa cells assessed as accumulation at G0/G1 phase at 9 uM measured after 24 hrs by propidium iodide staining based flow cytometry analysis (reference value: 67.86 %). It counts as functional.
Experiment [9] relates to HeLa. Nature of the experiment: Cell cycle arrest in human HeLa cells assessed as accumulation at G0/G1 phase at 18 uM measured after 24 hrs by propidium iodide staining based flow cytometry analysis (reference value: 67.86 %). The format is functional.
Experiment [10] has as its system HeLa. Nature of the experiment: Cell cycle arrest in human HeLa cells assessed as accumulation at S phase at 18 uM measured after 24 hrs by propidium iodide staining based flow cytometry analysis (reference value: 18.92 %). It counts as functional.
Experiment [11] deals with HeLa. Nature of the experiment: Cell cycle arrest in human HeLa cells assessed as accumulation at G0/G1 phase at 36 uM measured after 24 hrs by propidium iodide staining based flow cytometry analysis (reference value: 67.86 %). It counts as functional.

Bounds are passed on as bounds.

Regarding `COC(=O)c1ccc(-n2nc(-c3cc(OC)c(OC)c(OC)c3)c3cccnc32)cc1`, the IC50 in the experiment with KYSE-150 cell line, in the experiment with MCF7, in the experiment on HeLa [1] and in the experiment with MDA-MB-231 was above 100 µM in each case.

In the case of `COc1ccc(-c2nn(-c3cc(OC)c(OC)c(OC)c3)c3ncccc23)cc1[N+](=O)[O-]`, the IC50 was above 100 µM with KYSE-150 cell line, 28.4 µM in the experiment with MCF7, 23.5 µM with HeLa [1] and 37.3 µM with MDA-MB-231. Besides, the inhibition at Tubulin (Homo sapiens) worked out at 16%.

In the case of `COc1cc(-c2nn(-c3ccc(C(=O)NN)cc3)c3ncccc23)cc(OC)c1OC`, the IC50 was above 100 µM with KYSE-150 cell line, 65.2 µM in the experiment with MCF7, 29.7 µM in the experiment on HeLa [1] and above 100 µM with MDA-MB-231.

As to `COc1ccc(/C=C\c2cc(OC)c(OC)c(OC)c2)cc1O` [COMBRETASTATIN A4], the results for the IC50 with KYSE-150 cell line, in the experiment on HeLa [1] and in the experiment with MDA-MB-231 were 0.6 µM, 0.003 µM and 0.017 µM, respectively.

On to `COc1cc(-n2nc(-c3ccc(Cl)cc3)c3cccnc32)cc(OC)c1OC`, for which the concentration for half-maximal inhibition (IC50) in the experiment on KYSE-150 cell line is above 100 µM; in the experiment on MCF7, 97.6 µM; in the experiment with HeLa [1], above 100 µM; in the experiment with MDA-MB-231, 84.3 µM.

For `COc1cc(-n2nc(-c3ccc(Cl)c(Cl)c3)c3cccnc32)cc(OC)c1OC`, the 50% inhibitory concentration (IC50) with KYSE-150 cell line, in the experiment on MCF7, with HeLa [1] and with MDA-MB-231 was above 100 µM each time.

As to `COc1cc(-n2nc(-c3ccc(C)cc3)c3cccnc32)cc(OC)c1OC`, the IC50 in the experiment on KYSE-150 cell line, in the experiment on MCF7, in the experiment with HeLa [1] and in the experiment with MDA-MB-231 was above 100 µM each time.

For the molecule `COc1cc(-n2nc(-c3ccc(F)cc3)c3cccnc32)cc(OC)c1OC`, the IC50 in the experiment with KYSE-150 cell line was 41.1 µM; in the experiment with MCF7, 76.7 µM; with HeLa [1], 51.4 µM; with MDA-MB-231, 56.4 µM. The molecule also yielded an inhibition at Tubulin (Homo sapiens) of 18%.

Consider `COc1cc(F)ccc1-c1nn(-c2cc(OC)c(OC)c(OC)c2)c2ncccc12`, for which the concentration for half-maximal inhibition (IC50) came out at 87.4 µM in the experiment on KYSE-150 cell line, 87.6 µM in the experiment on MCF7, 58.3 µM with HeLa [1] and 47 µM in the experiment with MDA-MB-231. Moreover, on Tubulin (Homo sapiens), the inhibition stood at 20%.

As to `COC(=O)c1ccc(-c2nn(-c3cc(OC)c(OC)c(OC)c3)c3ncccc23)cc1`, the IC50 in the experiment on KYSE-150 cell line, in the experiment on MCF7, in the experiment with HeLa [1] and with MDA-MB-231 was above 100 µM each time.

For `COc1cccc(-c2nn(-c3cc(OC)c(OC)c(OC)c3)c3ncccc23)n1`, the IC50 in the experiment with KYSE-150 cell line, with MCF7, with HeLa [1] and in the experiment on MDA-MB-231 was above 100 µM each time.

As to `COc1cccc(-c2nn(-c3cc(OC)c(OC)c(OC)c3)c3ncccc23)c1`, the IC50 in the experiment on KYSE-150 cell line is above 100 µM; in the experiment on MCF7, 86.9 µM; with HeLa [1], 85 µM; in the experiment with MDA-MB-231, 86.7 µM.

Turning to `COc1ccc(-c2nn(-c3cc(OC)c(OC)c(OC)c3)c3ncccc23)cc1`, the IC50 in the experiment on KYSE-150 cell line, in the experiment with MCF7, in the experiment with HeLa [1] and in the experiment with MDA-MB-231 was above 100 µM throughout.

For `COc1ccc(-c2nn(-c3cc(OC)c(OC)c(OC)c3)c3ncccc23)cc1OC`, the IC50 in the experiment with KYSE-150 cell line is above 100 µM; with MCF7 it was 96.8 µM; in the experiment with HeLa [1], 22.7 µM; in the experiment with MDA-MB-231 it was 28.7 µM. This molecule also registered an inhibition on Tubulin (Homo sapiens) of 14%.

As to `COc1ccc(-n2nc(-c3cc(OC)c(OC)c(OC)c3)c3cccnc32)cc1OC`, the IC50 with KYSE-150 cell line, in the experiment with MCF7, with HeLa [1] and with MDA-MB-231 was above 100 µM in each case.

`COc1cc(-n2nc(-c3ccc([N+](=O)[O-])cc3)c3cccnc32)cc(OC)c1OC`: the IC50 in the experiment with KYSE-150 cell line was above 100 µM; in the experiment on MCF7, above 100 µM; with HeLa [1], 84.5 µM; in the experiment with MDA-MB-231, above 100 µM.

Regarding `COc1cc(-n2nc(-c3ccc4c(c3)OCO4)c3cccnc32)cc(OC)c1OC`, the IC50 in the experiment on KYSE-150 cell line was determined as 58.9 µM; in the experiment with MCF7, 80.1 µM; with HeLa [1] it was 38.9 µM; in the experiment with MDA-MB-231 it was 79.7 µM.

`COc1cc(-n2nc(-c3ccccc3OC(F)(F)F)c3cccnc32)cc(OC)c1OC`: the IC50 was above 100 µM with KYSE-150 cell line, above 100 µM with MCF7, 78.9 µM with HeLa [1] and 60.5 µM in the experiment with MDA-MB-231.

As for `COc1cc(-n2nc(-c3ccc(C(=O)NN)cc3)c3cccnc32)cc(OC)c1OC`, the IC50 was above 100 µM with KYSE-150 cell line, above 100 µM in the experiment on MCF7, 21.9 µM in the experiment with HeLa [1] and 51 µM in the experiment on MDA-MB-231.

With `COc1ccccc1-c1nn(-c2cc(OC)c(OC)c(OC)c2)c2ncccc12`, the half-maximal inhibitory concentration (IC50) in the experiment on KYSE-150 cell line, in the experiment with MCF7, in the experiment on HeLa [1] and in the experiment on MDA-MB-231 was above 100 µM each time.

As for `COc1cc(-c2nn(-c3ccc(Cl)cc3)c3ncccc23)cc(OC)c1OC`, the IC50 with KYSE-150 cell line, with MCF7, with HeLa [1] and in the experiment on MDA-MB-231 was above 100 µM throughout.

In the case of `COc1cc(-n2nc(-c3ccc(C#N)cc3)c3cccnc32)cc(OC)c1OC`, the IC50 is 85.9 µM in the experiment on KYSE-150 cell line, 45.9 µM with MCF7, 72.5 µM in the experiment on HeLa [1] and 82.5 µM in the experiment on MDA-MB-231.

In the case of `COc1cc(-c2nn(Cc3ccc(C)cc3)c3ncccc23)cc(OC)c1OC`, the IC50 with KYSE-150 cell line, in the experiment with MCF7, with HeLa [1] and in the experiment with MDA-MB-231 was above 100 µM in each case.

`COc1cc(-c2nn(Cc3ccc(F)cc3)c3ncccc23)cc(OC)c1OC`: the IC50 with KYSE-150 cell line was above 100 µM; with MCF7, above 100 µM; in the experiment on HeLa [1], 92.7 µM; in the experiment on MDA-MB-231, 61.5 µM.

With `COc1ccc(-c2nn(-c3cc(OC)c(OC)c(OC)c3)c3ncccc23)cc1N`, the half-maximal inhibitory concentration (IC50) was 58.1 µM in the experiment with KYSE-150 cell line, above 100 µM in the experiment on MCF7, 33.4 µM in the experiment on HeLa [1] and above 100 µM in the experiment on MDA-MB-231.

In the case of `COc1ccc(-c2nn(-c3cc(OC)c(OC)c(OC)c3)c3ncccc23)cc1O`, the Activity is 26.93% with HeLa [2]; 34.87% in the experiment with HeLa [3]; 48.13% with HeLa [4]; “Dose-dependent effect” in the experiment on HeLa [5]; 21.25% in the experiment with HeLa [6]; 21.18% with HeLa [7]. For the same molecule, the Activity in the experiment with HeLa [8] is on record as 51.89%; in the experiment on HeLa [9] it was 50.48%; with HeLa [10] it was 14.85%; in the experiment on HeLa [11], 30.61%. In addition, the IC50 in the experiment with KYSE-150 cell line stood at 62.8 µM; with MCF7 it was 27.2 µM; in the experiment on HeLa [1], 18.1 µM; in the experiment with MDA-MB-231 it was 27 µM. Moreover, the inhibition at Tubulin (Homo sapiens) is 31%.

With `COc1ccc(F)cc1-c1nn(-c2cc(OC)c(OC)c(OC)c2)c2ncccc12`, the IC50 with KYSE-150 cell line was 74.3 µM; in the experiment on MCF7, above 100 µM; in the experiment with HeLa [1], 91.8 µM; in the experiment on MDA-MB-231 it was 69.9 µM.

(Values after ChEMBL document CHEMBL4627287, “Synthesis and biological evaluation of novel pyrazolo[3,4-b]pyridines as cis-restricted combretastatin A-4 analogues” (Bioorg Med Chem Lett, 2020).)
